Reference: ChEMBL document CHEMBL1201862, “PubChem BioAssay data set” (2004)
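48-hour exposure; five concentrations; linearly interpolated endpoints. GI50 marks 50% less growth.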 Active and inactive are the calls of the source. Cut-off read from the data, not from the text of the source: active = GI50 up to about 1.1 µM and inactive = higher.

Assays:
Assay in all cases: inhibition of tumour cell growth, NCI panel, 48 h
[1] = system: UACC-62
[2] = system: PC-3
[3] = system: NCI-H23
[4] = system: SF-539
[5] = system: Hs-578T
[6] = system: CAKI-1
[7] = system: NCI-H460
[8] = system: EKVX
[9] = system: HOP-92
[10] = system: RXF 393
[11] = system: RPMI-8226
[12] = system: MOLT-4
[13] = system: MDA-N
[14] = system: K562
[15] = system: SK-OV-3
[16] = system: ACHN
[17] = system: LOX IMVI
[18] = system: A498
[19] = system: CCRF-CEM
[20] = system: NCI-H522

Measured: GI50

COc1ccc2cc(C(=O)NCCc3ccccc3)ccc2c1OC
inactive: [1] > 100 µM | [2] 91.2 µM | [3] > 100 µM | [4] 32.2 µM | [5] 56.4 µM | [6] > 100 µM | [7] > 100 µM | [8] > 100 µM | [9] 49.1 µM | [10] 30.5 µM | [11] > 100 µM | [12] > 100 µM | [13] > 100 µM | [14] 83.6 µM | [15] 65.3 µM | [16] > 100 µM | [17] > 100 µM | [18] 37.5 µM

COC(=O)/C=C1/SC(/C(=C(/[O-])OC)[n+]2ccc3ccccc3c2)=NC1=O
inactive: [19] > 100 µM | [1] > 100 µM | [2] > 100 µM | [3] > 100 µM | [4] 23 µM | [5] 25.4 µM | [6] > 100 µM | [8] > 100 µM | [10] > 100 µM | [11] > 100 µM | [12] > 100 µM | [13] > 100 µM | [14] > 100 µM | [15] > 100 µM | [20] > 100 µM | [16] > 100 µM | [17] > 100 µM | [18] > 100 µM

COc1ccc(N2C(=O)C3c4[nH]c5cc(Cl)ccc5c4C4CCC(C(C)(C)C)CC4C3C2=O)cc1 (stereo unspecified)
inactive: [19] 37.9 µM | [1] > 100 µM | [2] 29.2 µM | [3] 93.3 µM | [4] 96.8 µM | [5] 26.2 µM | [7] 35.9 µM | [8] 59.2 µM | [10] > 100 µM | [11] 53.2 µM | [12] 15.6 µM | [13] > 100 µM | [14] 33.6 µM | [15] > 100 µM | [20] > 100 µM | [16] 61.1 µM

CC(Cl)CC(=O)OCC1CCCN2CCCCC12 (stereo unspecified)
inactive: [19] > 100 µM | [1] > 100 µM | [2] > 100 µM | [3] > 100 µM | [4] > 100 µM | [5] > 100 µM | [6] > 100 µM | [7] > 100 µM | [8] > 100 µM | [9] > 100 µM | [10] > 100 µM | [11] > 100 µM | [12] > 100 µM | [13] > 100 µM | [14] > 100 µM | [15] > 100 µM | [16] > 100 µM | [17] > 100 µM | [18] > 100 µM

CC(C)(C)OC[C@H](O)CC#N
inactive: [19] > 100 µM | [1] > 100 µM | [2] > 100 µM | [3] > 100 µM | [4] > 100 µM | [5] > 100 µM | [6] > 100 µM | [7] > 100 µM | [8] > 100 µM | [10] > 100 µM | [11] > 100 µM | [12] > 100 µM | [13] > 100 µM | [14] > 100 µM | [15] > 100 µM | [16] > 100 µM | [17] > 100 µM | [18] > 100 µM

CCOC(=O)n1c2ccccc2c(=O)n1CCO
inactive: [19] > 100 µM | [1] > 100 µM | [2] > 100 µM | [3] > 100 µM | [4] > 100 µM | [5] > 100 µM | [6] > 100 µM | [7] > 100 µM | [8] > 100 µM | [10] 24.2 µM | [12] > 100 µM | [13] > 100 µM | [14] > 100 µM | [15] > 100 µM | [20] > 100 µM | [16] > 100 µM | [18] > 100 µM

Cc1c(/N=N/c2ccc(Cl)cc2)c(-c2ccccc2)n(C2OC(CO)C(O)C(O)C2O)c(=S)c1C#N (stereo unspecified)
inactive: [19] 10 µM | [1] 13.4 µM | [2] 10.6 µM | [3] 10.7 µM | [4] 20.7 µM | [5] 21.5 µM | [6] 18.1 µM | [7] 18.8 µM | [9] 14.2 µM | [10] 15 µM | [11] 25.2 µM | [12] 8.04 µM | [13] 18.2 µM | [14] 13.6 µM | [15] 16.9 µM | [16] 16 µM | [17] 18.2 µM | [18] 7.87 µM

CCc1n[nH]c(=O)[nH]1
inactive: [19] > 100 µM | [1] > 100 µM | [2] > 100 µM | [3] > 100 µM | [4] > 100 µM | [5] > 100 µM | [6] > 100 µM | [7] > 100 µM | [8] > 100 µM | [10] > 100 µM | [12] > 100 µM | [13] > 100 µM | [14] > 100 µM | [15] > 100 µM | [20] > 100 µM | [16] > 100 µM | [17] > 100 µM
